How the values were obtained:
MMP-2 = target: T1, MMP-2 (Homo sapiens, UniProt P08253); experiment: MMP-2 inhibition assay (fluorogenic peptide substrate); assay type: biochemical; details: for IC50: mean ± SE, n.d: not detected, Fig. 5d unit inferred, µM, read-out: IC50
T1 construct: purchased Sino Biological 10082-HNAH
T1 sequence (P08253 110-660): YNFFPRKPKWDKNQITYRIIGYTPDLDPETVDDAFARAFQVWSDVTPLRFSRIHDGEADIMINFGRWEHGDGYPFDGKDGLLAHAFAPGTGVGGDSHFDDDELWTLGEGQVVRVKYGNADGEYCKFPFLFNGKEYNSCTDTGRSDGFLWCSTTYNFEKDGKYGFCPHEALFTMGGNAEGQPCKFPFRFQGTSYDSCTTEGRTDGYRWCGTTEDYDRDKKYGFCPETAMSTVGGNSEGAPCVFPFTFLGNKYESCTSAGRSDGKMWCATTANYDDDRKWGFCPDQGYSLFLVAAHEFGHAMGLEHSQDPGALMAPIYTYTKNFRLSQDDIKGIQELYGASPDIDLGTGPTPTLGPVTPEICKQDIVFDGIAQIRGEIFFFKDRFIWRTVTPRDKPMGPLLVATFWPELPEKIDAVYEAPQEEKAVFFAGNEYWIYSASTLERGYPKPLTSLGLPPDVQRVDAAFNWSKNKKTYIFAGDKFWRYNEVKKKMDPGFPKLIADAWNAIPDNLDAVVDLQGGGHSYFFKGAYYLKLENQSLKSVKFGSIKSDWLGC
Experimental: (§1) The inhibition by the small molecule compounds against MMP-2/MMP-9 was measured using an assay probing the enzyme proteolytic activity on the substrate DNP-Pro-Leu-Gly-Met-Trp-Ser-Arg (Enzo Life Sciences, USA). All assays were performed in the assay buffer containing 50 mM Tris, 100 mM NaCl. 5 mM CaCl2, and 0.1% Brij 35, pH 7.5. Human proMMP-2 and proMMP-9 were purchased from Sino biological (Germany). The proMMPs were activated by 1 mM APMA in the assay buffer at 37 °C for 2 h. After activation, MMP-2 was diluted to 6.5 nM of final assay concentration, and MMP-9 was diluted by the buffer to reach 10 nM of final assay concentration. In each well, 49 μl of enzyme solution was incubated with 1 μl of compounds of series of concentration (nM-mM in DMSO) at RT for 30 min. 2 μl of the FRET substrate was added right before the measurement at a final concentration of 25 μM. The rate of hydrolysis was monitored by quantifying the emission at 360 nm (ex: 280 nm). The emission was measured with intervals of the 30 s for 30 min with Synergy H1 Plate Reader (Agilent, USA). The measurements were done in triplicate. […] Then, curves were plotted as a function of the concentration of the inhibitor against the relative enzyme activity. Vmax was derived from the detected […] signal for each concentration and logistic fitting was performed to obtain IC50 values using Origin 2019b (OriginLab).

MMP-9 = target: T2, MMP-9 (Homo sapiens, UniProt P14780); experiment: MMP-9 inhibition assay (fluorogenic peptide substrate); assay type: biochemical; set-up: remaining enzyme activity (% of control): scale not given here; details: for IC50: mean ± SE, n.d: not detected, Fig. 5e prints no unit, µM, read-out: IC50
T2 construct: purchased Sino Biological 10327-HNAH
T2 sequence (P14780 107-707 limits assumed): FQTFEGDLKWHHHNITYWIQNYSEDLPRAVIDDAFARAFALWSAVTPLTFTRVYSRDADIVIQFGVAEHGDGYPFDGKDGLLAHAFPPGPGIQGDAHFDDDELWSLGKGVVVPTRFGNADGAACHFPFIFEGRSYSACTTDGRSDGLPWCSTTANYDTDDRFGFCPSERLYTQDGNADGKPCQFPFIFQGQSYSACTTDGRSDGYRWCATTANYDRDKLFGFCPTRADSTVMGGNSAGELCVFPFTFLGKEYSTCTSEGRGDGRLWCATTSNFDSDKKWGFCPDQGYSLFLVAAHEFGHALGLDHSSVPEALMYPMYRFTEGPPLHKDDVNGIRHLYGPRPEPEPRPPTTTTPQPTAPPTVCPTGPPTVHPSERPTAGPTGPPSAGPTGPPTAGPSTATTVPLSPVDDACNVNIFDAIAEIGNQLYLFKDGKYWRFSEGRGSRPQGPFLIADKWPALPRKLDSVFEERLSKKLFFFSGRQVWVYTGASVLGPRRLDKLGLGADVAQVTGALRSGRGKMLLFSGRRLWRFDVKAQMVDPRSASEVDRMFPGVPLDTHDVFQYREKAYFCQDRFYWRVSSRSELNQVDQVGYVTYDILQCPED
Experimental: as §1

[1] = MMP-2, concentration 1219.00 µM
[2] = MMP-9, concentration 1219.00 µM

Row | Structure (SMILES) | remaining activity (%) (MMP-2; MMP-2, concentration 0.0156 µM) | remaining activity (%) (MMP-2; MMP-2, concentration 0.08 µM) | remaining activity (%) (MMP-2; MMP-2, concentration 0.39 µM) | remaining activity (%) (MMP-2; MMP-2, concentration 9.75 µM) | remaining activity (%) (MMP-2; MMP-2, concentration 48.76 µM) | remaining activity (%) (MMP-2; MMP-2, concentration 243.80 µM) | remaining activity (%) (MMP-2; [1]) | IC50 (MMP-2) [µM] | remaining enzyme activity (% of control) (MMP-9; MMP-9, concentration 0.08 µM) | remaining enzyme activity (% of control) (MMP-9; MMP-9, concentration 0.39 µM) | remaining enzyme activity (% of control) (MMP-9; MMP-9, concentration 1.95 µM) | remaining enzyme activity (% of control) (MMP-9; MMP-9, concentration 9.75 µM) | remaining enzyme activity (% of control) (MMP-9; MMP-9, concentration 48.76 µM) | remaining enzyme activity (% of control) (MMP-9; MMP-9, concentration 243.80 µM) | remaining enzyme activity (% of control) (MMP-9; [2]) | IC50 (MMP-9) [µM] | remaining activity (%) (MMP-2; MMP-2, concentration 1.95 µM) | other results
1 | O=C(CCC(=O)NCc1c[nH]nn1)NCCCCCCCCNC(=O)Cn1cnc2c(oc3ccccc32)c1=O [182+787 Linker 4] | 85.89 | 83.14 | 79.52 | 75.23 | 75.41 | 40.43 | 0.00 | 193 ± 24.2 | 91.89 | 89.82 | 91.34 | 95.46 | 62.79 | 34.94 | 0.00 | 134 ± 39.6 | – | –
2 | O=C(CCC(=O)NCc1c[nH]nn1)NCCOCCOCCNC(=O)Cn1cnc2c(oc3ccccc32)c1=O [182+787 Linker 10] | 104.21 | 112.47 | 110.12 | 97.01 | 78.57 | 30.14 | 0.00 | 137 ± 37.5 | 100.62 | 94.43 | 101.63 | 94.48 | 72.77 | 28.00 | 0.00 | 126 ± 12 | 98.52 | –
3 | O=C(CSCCNC(=O)Cn1cnc2c(oc3ccccc32)c1=O)NCc1c[nH]nn1 [182+787 Linker 24] | – | – | – | – | – | – | – | 45.9 ± 16.2 | – | – | – | – | – | – | – | 126 ± 9.6 | – | remaining activity (%) (MMP-2; MMP-2, concentration 0.0171 µM): 92.17; remaining activity (%) (MMP-2; MMP-2, concentration 0.0855 µM): 86.66; remaining activity (%) (MMP-2; MMP-2, concentration 0.43 µM): 97.11; remaining activity (%) (MMP-2; MMP-2, concentration 2.14 µM): 88.49; remaining activity (%) (MMP-2; MMP-2, concentration 10.69 µM): 87.27; remaining activity (%) (MMP-2; MMP-2, concentration 53.44 µM): 39.59; remaining activity (%) (MMP-2; MMP-2, concentration 267.20 µM): 13.68; remaining enzyme activity (% of control) (MMP-9; MMP-9, concentration 0.0855 µM): 86.26; remaining enzyme activity (% of control) (MMP-9; MMP-9, concentration 0.43 µM): 83.15; remaining enzyme activity (% of control) (MMP-9; MMP-9, concentration 2.14 µM): 95.29; remaining enzyme activity (% of control) (MMP-9; MMP-9, concentration 10.69 µM): 93.78; remaining enzyme activity (% of control) (MMP-9; MMP-9, concentration 53.44 µM): 70.78; remaining enzyme activity (% of control) (MMP-9; MMP-9, concentration 267.20 µM): 19.03
4 | Cn1c(O)nc2cc(C(=O)NCCNC(=O)Cn3cnc4c(oc5ccccc54)c3=O)cnc21 [182+826 Linker 1] | – | – | – | – | – | – | – | – | – | – | 89.70 | – | – | – | – | – | 93.31 | remaining activity (%) (MMP-2; MMP-2, concentration 0.12 µM): 94.84; remaining activity (%) (MMP-2; MMP-2, concentration 0.49 µM): 90.90; remaining activity (%) (MMP-2; MMP-2, concentration 7.81 µM): 101.10; remaining activity (%) (MMP-2; MMP-2, concentration 31.25 µM): 86.65; remaining activity (%) (MMP-2; MMP-2, concentration 125.00 µM): 86.38; remaining activity (%) (MMP-2; MMP-2, concentration 500.00 µM): 61.56; remaining enzyme activity (% of control) (MMP-9; MMP-9, concentration 0.12 µM): 83.90; remaining enzyme activity (% of control) (MMP-9; MMP-9, concentration 0.49 µM): 96.21; remaining enzyme activity (% of control) (MMP-9; MMP-9, concentration 7.81 µM): 92.69; remaining enzyme activity (% of control) (MMP-9; MMP-9, concentration 31.25 µM): 77.21; remaining enzyme activity (% of control) (MMP-9; MMP-9, concentration 125.00 µM): 71.00; remaining enzyme activity (% of control) (MMP-9; MMP-9, concentration 500.00 µM): 60.44

— publication PMC10023787, “Trio-pharmacophore DNA-encoded chemical library for simultaneous selection of fragments and linkers” (Nature Communications, 2023)
